According to patent US10774083B2, “Heterocyclic amide compound” (TAKEDA PHARMACEUTICAL COMPANY LIMITED, priority 2016, dated 2020):

Experiments:
[1] = tested on: human fibrosarcoma cell line HT-1080; test: antitumor action on mice transplanted with human fibrosarcoma cell line HT-1080; type: in vivo, mouse; settings: HT-1080, 10 mg/kg orally, once per day, 11 days
Protocol: An antitumor action of the compound of the present invention on mice transplanted with human malignant melanoma cell line SKMEL-2 and human fibrosarcoma cell line HT-1080 was evaluated by the following method.
Human fibrosarcoma cell line HT-1080 was subcutaneously transplanted by injection into 7-week-old BALB/cA Jcl-nu/nu female mouse (CLEA Japan, Inc.) by 7.5×10^6 cells. At 8 days from transplantation, the tumor diameter of the engrafted tumor was measured and the tumor volume was calculated by the following formula. tumor volume=major axis×minor axis×minor axis×(½)
Individuals having a tumor volume of 100 to 300 mm^3 were selected for SKMEL-2, and individuals having a tumor volume of 200 to 400 mm^3 were selected for HT-1080, and 4 or 5 mice per group were used for the experiment. A 0.5% methylcellulose suspension of the test compound was orally administered to the mice at the dose (dose per administration), administration frequency and dosing period shown in Table 3. The tumor diameter was measured one day before the start of administration and one day after completion of administration and the tumor volume was calculated.
The tumor proliferation rate (T/C (%)) of the test compound administration group in comparison with the control administration group was calculated by the following formula. […]

[2] = target: T1, human PRS protein (His-Avi-hEPRS (998-1512)) (Homo sapiens, UniProt P07814); test: PRS inhibitory activity ([32P]pyrophosphate exchange enzyme assay); type: biochemical; settings: 300 nM test compound; read-out: inhibitory rate (%) of PRS
T1 construct: to construct His-Avi-hEPRS (998-1512) expression plasmid; His tag (N); Avi tag (N); TEV cleavage site (ENLYFQG, then S; inferred from the forward primer hEPRS-TEV-NheF) (N); made in house; host or cells: E. coli BL21(DE3)
T1 sequence (P07814 998-1512 limits assumed): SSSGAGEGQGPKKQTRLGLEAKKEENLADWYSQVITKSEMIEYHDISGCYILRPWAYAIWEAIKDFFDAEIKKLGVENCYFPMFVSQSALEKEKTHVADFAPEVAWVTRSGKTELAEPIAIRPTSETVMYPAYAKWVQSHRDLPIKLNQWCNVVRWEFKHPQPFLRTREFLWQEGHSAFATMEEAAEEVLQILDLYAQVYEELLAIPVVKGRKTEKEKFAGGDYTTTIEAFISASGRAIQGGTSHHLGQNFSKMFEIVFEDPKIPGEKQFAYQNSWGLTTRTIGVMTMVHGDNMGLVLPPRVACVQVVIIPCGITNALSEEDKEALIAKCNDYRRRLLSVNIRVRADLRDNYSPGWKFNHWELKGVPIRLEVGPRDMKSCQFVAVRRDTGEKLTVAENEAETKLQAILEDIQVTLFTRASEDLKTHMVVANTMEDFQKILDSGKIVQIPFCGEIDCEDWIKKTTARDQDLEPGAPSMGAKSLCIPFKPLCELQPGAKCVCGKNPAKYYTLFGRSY
Procedure, shortened: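 Compound was pre-incubated 60 min with 40 nM His-Avi-hEPRS (998-1512) (stock, E. coli-expressed) in Tris pH 7.5/KCl/DTT/Tween/MgCl2. Reaction began with substrate mix containing 300 μM ATP, 160 μM L-proline, 400 μM [32P]pyrophosphate (stock levels) and ran 30 min at room temperature. Charcoal-bound radioactivity was counted; inhibition was relative to no-reaction control.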

[3] = tested on: human ovarian cancer cells A2780; test: proliferation inhibitory activity against human ovarian cancer cell A2780 (CellTiter-Glo); type: cell-based; settings: A2780, 72 h, 1 μM test compound, 3 days of culture, read-out: proliferation inhibitory rate (%) of A2780 cells
Procedure, shortened: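 A2780 cells in RPMI-1640 with 10% FBS, compound added the day after seeding and cultured 3 days. Viability by CellTiter-Glo luminescence. Inhibition (%) calculated with cell-free wells as 100% inhibition.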

Row | SMILES | inhibition at 0.3 µM [2] | T/C (%) tumor proliferation rate [1] | inhibition at 1 µM [3]
1 | Cn1cc(-c2cc(F)cc(CNC(=O)c3ncnc4nc(C5COCCO5)[nH]c34)c2)cn1 (stereo not drawn) [Example 32, 8-(1,4-dioxan-2-yl)-N-(3-fluoro-5-(1-methyl-1H-pyrazol-4-yl)benzyl)-7H-purine-6-carboxamide] | 101% | -8.2% | 76%
2 | Cn1cc(NC(=O)c2cccc(CNC(=O)c3nccc4nc(C5CCCC5)[nH]c34)c2)cn1 [Example 106, 2-cyclopentyl-N-(3-((1-methyl-1H-pyrazol-4-yl)carbamoyl)benzyl)-3H-imidazo[4,5-c]pyridine-4-carboxamide] | 99% |  | 84%
3 | CCn1c(C2CCCC2)nc2ccnc(C(=O)NCc3cc(F)cc(-c4cnn(C)c4)c3)c21 [Example 101, 2-cyclopentyl-3-ethyl-N-(3-fluoro-5-(1-methyl-1H-pyrazol-4-yl)benzyl)-3H-imidazo[4,5-c]pyridine-4-carboxamide] | 102% |  | 98%
4 | Cn1cc2c(CNC(=O)c3nccc4nc(C5CCCC5)[nH]c34)cccc2n1 [Example 94, 2-cyclopentyl-N-((2-methyl-2H-indazol-4-yl)methyl)-3H-imidazo[4,5-c]pyridine-4-carboxamide] | 97% |  | 64%
5 | Cn1ncc(-c2cc(F)cc(CNC(=O)c3ncnc4nc(C5CCCC5)[nH]c34)c2)n1 [Example 71, 8-cyclopentyl-N-(3-fluoro-5-(2-methyl-2H-1,2,3-triazol-4-yl)benzyl)-7H-purine-6-carboxamide] | 100% |  | 70%
6 | Cn1cc(-c2cc(F)cc(CNC(=O)c3nccc4nc(C5CCCC5)n(CC(=O)O)c34)c2)cn1 [Example 127, (2-cyclopentyl-4-((3-fluoro-5-(1-methyl-1H-pyrazol-4-yl)benzyl)carbamoyl)-3H-imidazo[4,5-c]pyridin-3-yl)acetic acid] | 101% |  | 70%
7 | Cn1cc(-c2cc(F)cc(CNC(=O)c3ncnc4nc(C5(F)CCCC5)[nH]c34)c2)cn1 [Example 27, 8-(1-fluorocyclopentyl)-N-(3-fluoro-5-(1-methyl-1H-pyrazol-4-yl)benzyl)-7H-purine-6-carboxamide] | 99% |  | 97%
8 | Cn1cc(-c2cc(F)cc(CNC(=O)c3ncnc4nc(C5CCC5)[nH]c34)c2)cn1 [Example 58, 8-cyclobutyl-N-(3-fluoro-5-(1-methyl-1H-pyrazol-4-yl)benzyl)-7H-purine-6-carboxamide] | 99% |  | 66%
9 | Cn1cc(-c2ccnc(CNC(=O)c3ncnc4nc(C5CCCC5)n(C)c34)c2)cn1 [Example 52, 8-cyclopentyl-7-methyl-N-((4-(1-methyl-1H-pyrazol-4-yl)pyridin-2-yl)methyl)-7H-purine-6-carboxamide] | 99% |  | 69%
10 | Cn1ncc2cccc(CNC(=O)c3nccc4nc(C5CCCC5)[nH]c34)c21 [Example 95, 2-cyclopentyl-N-((1-methyl-1H-indazol-7-yl)methyl)-3H-imidazo[4,5-c]pyridine-4-carboxamide] | 99% |  | 56%
11 | Cn1cc(-c2cc(F)cc(CNC(=O)c3nccc4nc(C5CCCC5)n(C)c34)c2)ccc1=O [Example 92, 2-cyclopentyl-N-(3-fluoro-5-(1-methyl-6-oxo-1,6-dihydropyridin-3-yl)benzyl)-3-methyl-3H-imidazo[4,5-c]pyridine-4-carboxamide] | 100% |  | 99%
12 | Cc1cc(-c2cc(F)cc(CNC(=O)c3cc(N4CC[C@@](C#N)(C5CC5)C4=O)cc(C)n3)c2)ccn1 [Example 209, 4-((3S)-3-cyano-3-cyclopropyl-2-oxopyrrolidin-1-yl)-N-(3-fluoro-5-(2-methylpyridin-4-yl)benzyl)-6-methylpyridine-2-carboxamide] | 100% |  | 80%

More lines, main results first:

Row | inhibition at 0.3 µM [2] | SMILES | T/C (%) tumor proliferation rate [1] | inhibition at 1 µM [3]
13 | 99% | Cc1cc(N2C(=O)[C@](C#N)(C3CC3)C[C@@H]2C)cc(C(=O)NCc2cc(F)cc(-c3cnn(C)c3)c2)n1 [Example 221, 4-((3S,5S)-3-cyano-3-cyclopropyl-5-methyl-2-oxopyrrolidin-1-yl)-N-(3-fluoro-5-(1-methyl-1H-pyrazol-4-yl)benzyl)-6-methylpyridine-2-carboxamide] |  | 64%
14 | 101% | COc1cc(-c2cc(F)cc(CNC(=O)c3nccc4nc(C5CCCC5)n(C)c34)c2)ccn1 [Example 96, 2-cyclopentyl-N-(3-fluoro-5-(2-methoxypyridin-4-yl)benzyl)-3-methyl-3H-imidazo[4,5-c]pyridine-4-carboxamide] |  | 95%
15 | 101% | Cn1ccc(-c2cc(F)cc(CNC(=O)c3nccc4nc(C5CCCC5)n(C)c34)c2)cc1=O [Example 98, 2-cyclopentyl-N-(3-fluoro-5-(1-methyl-2-oxo-1,2-dihydropyridin-4-yl)benzyl)-3-methyl-3H-imidazo[4,5-c]pyridine-4-carboxamide] |  | 98%
16 | 100% | Cn1cc(-c2cccc(CNC(=O)c3nccc4nc(C5CCCC5)[nH]c34)c2)cn1 [Example 84, 2-cyclopentyl-N-(3-(1-methyl-1H-pyrazol-4-yl)benzyl)-3H-imidazo[4,5-c]pyridine-4-carboxamide] |  | 97%
17 | 101% | Cn1cc(-c2cc(F)cc(CNC(=O)c3ncnc4nc(C5CCCC5)[nH]c34)c2)cn1 [Example 2, 8-cyclopentyl-N-(3-fluoro-5-(1-methyl-1H-pyrazol-4-yl)benzyl)-7H-purine-6-carboxamide] |  | 97%
18 | 99% | Cc1cc(N2CC[C@@](C#N)(C3CC3)C2=O)cc(C(=O)NCc2cc(F)cc(-c3cnc(C)s3)c2)n1 [Example 187, 4-((3S)-3-cyano-3-cyclopropyl-2-oxopyrrolidin-1-yl)-N-(3-fluoro-5-(2-methyl-1,3-thiazol-5-yl)benzyl)-6-methylpyridine-2-carboxamide] |  | 65%
19 | 101% | Cn1cc(-c2cc(F)c(F)c(CNC(=O)c3nccc4nc(C5CCCC5)[nH]c34)c2)cn1 [Example 90, 2-cyclopentyl-N-(2,3-difluoro-5-(1-methyl-1H-pyrazol-4-yl)benzyl)-3H-imidazo[4,5-c]pyridine-4-carboxamide] |  | 96%
20 | 96% | Cn1cc(-c2cc(F)cc(CNC(=O)c3ncnc4nc(C5CCOC5)[nH]c34)c2)cn1 (stereo not drawn) [Example 24, N-(3-fluoro-5-(1-methyl-1H-pyrazol-4-yl)benzyl)-8-(tetrahydrofuran-3-yl)-7H-purine-6-carboxamide] |  | 57%
21 | 98% | Cn1cc(-c2cc(F)cc(CNC(=O)c3nccc4nc(CC5CCCC5)[nH]c34)c2)cn1 [Example 104, 2-(cyclopentylmethyl)-N-(3-fluoro-5-(1-methyl-1H-pyrazol-4-yl)benzyl)-3H-imidazo[4,5-c]pyridine-4-carboxamide] |  | 68%
22 | 101% | Cn1cc(-c2cc(F)cc(CNC(=O)c3ncnc4nc(C5CCCC5)n(C)c34)c2)cn1 [Example 3, 8-cyclopentyl-N-(3-fluoro-5-(1-methyl-1H-pyrazol-4-yl)benzyl)-7-methyl-7H-purine-6-carboxamide] |  | 99%
